Patent US7629340B2, “N-(6-membered aromatic ring)-amido anti-viral compounds” (SmithKline Beecham Corporation, priority 2005, dated 2009)

Assay: Replicon Assay (luciferase, ET cell line)
Format: cell-based, HCV
Conditions: Hepatitis C virus; % inhibition of replication relative to no compound control, test concentration of 10 μM; ET cells, luciferase read 48-72 hours; read-out: % inhib at 10 uM
Protocol: A cell line, ET (Huh-lucubineo-ET) was used for screening of compounds of the present invention for HCV RNA dependent RNA polymerase. The ET cell line was stably transfected with RNA transcripts harboring a I389luc-ubi-neo/NS3-3′/ET; replicon with firefly luciferase-ubiquitin-neomycin phosphotransferase fusion protein and EMCV-IRES driven NS3-5B polyprotein containing the cell culture adaptive mutations (E1202G; T1280I; K1846T) (Krieger at al, 2001 and unpublished). The ET cells were grown in DMEM, supplemented with 10% fetal calf serum, 2 mM Glutamine, Penicillin (100 IU/mL)/Stretomycin (100 μg/mL), 1× nonessential amino acids, and 250 μg/mL G418 (“Geneticin”). They were all available through Life Technologies (Bethesda, Md.). The cells were plated at 0.5−1.0×10^4 cells/well in the 96 well plates and incubated for 24 hrs before adding nucleoside analogs. […] Luciferase activity were measured 48-72 hours later by adding a lysis buffer and the substrate (Catalog number Glo-lysis buffer E2661 and Bright-Glo luciferase system E2620 Promega, Madison, Wis.). Cells should not be too confluent during the assay. Percent inhibition of replication was plotted relative to no compound control. Under the same condition, cytotoxicity of the compounds was determined using cell proliferation reagent, WST-1 (Roche, Germany). The compounds showing antiviral activities, but no significant cytotoxicities were chosen to determine IC50 and TC50. For these determinations, 10 concentration of each compound were used. Concentrations for test compounds typically span a range of 500 fold. IC50 and TC50 values were calculated by fitting % inhibition at each concentration (I) to the following equation: % inhibition=100%/[1+10^(log IC50−log(I))*b] where b is Hill's coefficient.

| SMILES | inhibition at 10 µM [%] |
| --- | --- |
| CC1=NN(c2ccccc2)C(=O)/C1=C\c1ccc(NC(=O)[C@@H]2CCCN2C(=O)OCc2ccccc2)cc1 (stereo in doubt) [Compound 6005, 2-[4-(3-Methyl-5-oxo-1-phenyl-1,5-dihydro-pyrazol-4-ylidenemethyl)-phenylcarbamoyl]-pyrrolidine-1-carboxylic acid benzyl ester] | 3.63 |
| Cc1c(Br)cc2[nH]c(Cc3ccc(NC(=O)[C@@H]4CCCN4C(=O)OCc4ccccc4)cc3)nc2c1C (stereo in doubt) [Compound 6006, 2-[4-(6-Bromo-4,5-dimethyl-1H-benzoimidazol-2-ylmethyl)-phenylcarbamoyl]-pyrrolidine-1-carboxylic acid benzyl ester] | 70 |
| Cc1ccc(S(=O)(=O)c2ccc(Oc3cccc(NC(=O)[C@@H]4CCCN4C(=O)OCc4ccccc4)c3)cc2)cc1 (stereo in doubt) [Compound 6027, 2-{3-[4-(Toluene-4-sulfonyl)-phenoxy]-phenylcarbamoyl}-pyrrolidine-1-carboxylic acid benzyl ester] | 98.1 |
| COc1cccc(OC)c1-c1cccc(NC(=O)[C@@H]2CCCN2C(=O)OCc2ccccc2)c1 (stereo in doubt) [Compound 6033, 2-(2′,6′-Dimethoxybiphenyl-3-yl-carbamoyl)-pyrrolidine-1-carboxylic acid benzyl ester] | 8.26 |
| O=C(Nc1ccc(Cc2nc3ccccc3[nH]2)cc1)[C@@H]1CCCN1C(=O)OCc1ccccc1 (stereo in doubt) [Compound 6038, 2-[4-(1H-Benzoimidazol-2-ylmethyl)-phenylcarbamoyl]-pyrrolidine-1-carboxylic acid benzyl ester] | 9.34 |
| Cc1cccc(Oc2cc(NC(=O)[C@@H]3CCCN3C(=O)OCc3ccccc3)cc([N+](=O)[O-])c2)c1 (stereo in doubt) [Compound 6039, 2-(3-Nitro-5-m-tolyloxy-phenylcarbamoyl)-pyrrolidine-1-carboxylic acid benzyl ester] | 33.8 |
| COc1ccc(-c2ccc(NC(=O)[C@@H]3CCCN3C(=O)OCc3ccccc3)cc2)c(OC)c1 [Compound 6001, 2-(2′,4′-Dimethoxy-biphenyl-4-ylcarbamoyl)-pyrrolidine-1-carboxylic acid benzyl ester] | 87.8 |
| O=C(Nc1ccc(NS(=O)(=O)c2ccccc2)cc1)[C@@H]1CCCN1C(=O)OCc1ccccc1 [Compound 6002, 2-(4-Benzenesulfonylamino-phenylcarbamoyl)-pyrrolidine-1-carboxylic acid benzyl ester] | 2.69 |
| CC1CCN(S(=O)(=O)c2ccc(NC(=O)[C@@H]3CCCN3C(=O)OCc3ccccc3)cc2)CC1 [Compound 6003, 2-[4-(4-Methyl-piperidine-1-sulfonyl)-phenylcarbamoyl]-pyrrolidine-1-carboxylic acid benzyl ester] | 1.21 |
| O=C(Nc1c(Cl)cccc1Cl)c1ccc(NC(=O)[C@@H]2CCCN2C(=O)OCc2ccccc2)cc1 [Compound 6004, 2-[4-(2,6-Dichloro-phenylcarbamoyl)-phenylcarbamoyl]-pyrrolidine-1-carboxylic acid benzyl ester] | 2.08 |
| COc1ccc(OC)c(-c2ccc(NC(=O)[C@@H]3CCCN3C(=O)OCc3ccccc3)cc2)c1 [Compound 6007, 2-(2′,5′-Dimethoxy-biphenyl-4-ylcarbamoyl)-pyrrolidine-1-carboxylic acid benzyl ester] | 93.4 |
| COc1cccc(-c2cccc(NC(=O)[C@@H]3CCCN3C(=O)OCc3ccccc3)c2)c1 [Compound 6008, 2-(3′-Methoxy-biphenyl-3-ylcarbamoyl)-pyrrolidine-1-carboxylic acid benzyl ester] | 79.8 |
| O=C(Nc1ccc(-c2ccc3[nH]ccc3c2)cc1)[C@@H]1CCCN1C(=O)OCc1ccccc1 [Compound 6009, 2-[4-(1H-Indol-5-yl)-phenylcarbamoyl]-pyrrolidine-1-carboxylic acid benzyl ester] | 83.3 |
